Article PMC11005426 (mBio, 2024)

Target: T1, ASFV topo II ATPase domain (African swine fever virus, UniProt A0A2X0THW2)
T1 construct: gene P1192R CDS
Conditions: Mg2+; ATP-binding site; 0.5 mM AMPPNP, 5 mM MgCl2, HEPES pH 7.5

**Q.** With `Nc1ncnc2c1ncn2[C@@H]1O[C@H](COP(=O)(O)OP(=O)(O)NP(=O)(O)O)[C@@H](O)[C@H]1O` [AMPPNP] as the molecule, how does the “X-ray crystal structure, 2.20 A” value read?
**A.** crystal structure of the isolated ATPase domain from ASFV topo II in complex with AMPPNP
